# Experiments:
# patients with T1D [1] = test: CGM metrics after exercise session, randomized 4-period crossover trial of mini-dose glucagon in T1D; format: in vivo, human; conditions: no statistically significant differences
# From the text: Visit Schedule. (1) Screening/Baseline Visit. This visit will be used to assess eligibility and can include determination of VO2 max for fitness evaluation and for the determination of exercise intensity for the study. (2) Randomized Crossover Trial. Each participant will undergo four aerobic exercise sessions (in random order), with different strategies for glucose regulation that include: (i) Control: Fasted exercise, no basal insulin reduction; (ii) Strategy 1: Fasted exercise, basal insulin reduction only (50% reduction in basal rate five minutes before exercise, for the duration of the exercise); (iii) Strategy 2: Fasted exercise, no basal adjustment+pre-exercise glucose tabs (buccal route-40 grams in total); (iv) Strategy 3: Fasted exercise, no basal adjustment+pre-exercise mini-dose glucagon (sc). In all 4 sessions, aerobic exercise will be performed in the fasted state (before a standardized meal) for 45 minutes at ˜50-55% of the participant's predetermined aerobic capacity. The strategies for select sessions will be blinded. The day before each exercise session participants will: Insert new insulin infusion set into abdomen or upper buttock (ensure not in exercising limb); For CGM users, insert a new CGM sensor; For non-CGM users, come into clinic to have a CGM sensor inserted to use with a blinded receiver. For participants using the blinded CGM, the sensor will be removed at 12:00 PM the next day at home (˜24 hours after the end of exercise). The participant will bring the device to the next visit or mail it back to the clinic. Participants will receive a phone call the day after each exercise session to elicit any adverse events. For CGM users, the CGM data will be downloaded at each visit and arrangements made to transmit the data following the last exercise session. The participant's insulin pump will be downloaded at each visit and arrangements made to transmit the data following the last exercise session. Subjects aged 18-<65 years with a duration of T1D ≥2 years, a random C-peptide <0.6 ng/ml, that use CSII (Insulin pump) for at least 6 months, with no plans to discontinue pump use during the study and exercise regularly, ≥30 minutes moderate or more vigorous aerobic activity X≥3 times/week were randomized in a 4-period crossover trial. The control was no basal insulin adjustment, no carbs unless glucose <70 mg/dL (then 20 g dextrose given). Basal Rate Reduction: Basal rate decreased by 50% 5 minutes before start of exercise (basal rate returned to usual rate at end of exercise). Glucose Tabs: Dextrose tabs orally (20 grams) 5 min before start of exercise and 20 grams again at 30 min after start. Mini-Dose Glucagon: Glucagon (150 μg) 5 min before start of exercise (SQ-abdomen). Exercise consisted of moderate intensity aerobic activity (treadmill brisk uphill walking) performed at 50-55% VO2 max for 45 min. Performed in fasted state. Same workload performed at each exercise session. Exercise was terminated if: glucose <70 mg/dL (participant treated for hypo) and/or participant experienced dizziness, pallor and other symptoms of poor perfusion and/or exercise intolerance. Following each exercise session, participants rested for 30 min and then consumed a standardized meal. Meal contained 44-50 grams of carbohydrate (55% of calories from carbohydrate, 20% from protein, and 25% from fat). Insulin is administered as pump bolus 5 min before standardized meal using participants own carbohydrate ratio with correction only if glucose ≥270 mg/dL.
# patients with T1D [2] = test: Plasma glucose (YSI analyzer) during exercise/early recovery and post meal, randomized 4-period crossover trial; format: in vivo, human
# From the text: Visit Schedule. (1) Screening/Baseline Visit. This visit will be used to assess eligibility and can include determination of VO2 max for fitness evaluation and for the determination of exercise intensity for the study. (2) Randomized Crossover Trial. Each participant will undergo four aerobic exercise sessions (in random order), with different strategies for glucose regulation that include: (i) Control: Fasted exercise, no basal insulin reduction; (ii) Strategy 1: Fasted exercise, basal insulin reduction only (50% reduction in basal rate five minutes before exercise, for the duration of the exercise); (iii) Strategy 2: Fasted exercise, no basal adjustment+pre-exercise glucose tabs (buccal route-40 grams in total); (iv) Strategy 3: Fasted exercise, no basal adjustment+pre-exercise mini-dose glucagon (sc). In all 4 sessions, aerobic exercise will be performed in the fasted state (before a standardized meal) for 45 minutes at ˜50-55% of the participant's predetermined aerobic capacity. The strategies for select sessions will be blinded. Sample collection. Blood samples collected through a venous catheter with plasma glucose measured by an YSI analyzer. Blood samples will be collected at: Baseline (at −30, −15, −5, 0 min), During exercise (at 5, 10, 15, 25, 35, 45 min), In recovery post exercise (at 50, 55, 60, 75 min), Regularly following a standardized mixed meal for 90 minutes (at 90, 105, 120, 135, and 165 min). Plasma from the collected blood samples will be used to measure the following hormones, proinflammatory markers and metabolites at baseline, during exercise, in recovery post exercise, and regularly following the standardized mixed meal: Insulin, Glucagon, Cortisol, Growth hormone, Catecholamines (epinephrine and norepinephrine), Interleukin-6, tumor necrosis factor-α, Nonesterified fatty acids, β-hydroxybutyrate, and/or Lactate. […]
# [3] = late recovery period (standard meal to noon the day after exercise session), mean
# [4] = late recovery period (standard meal to noon the day after exercise session), median
# [5] = overnight (midnight to 6 am the day after exercise session), mean
# [6] = overnight (midnight to 6 am the day after exercise session), median
substance,measurement,setting,value
glucagon [MDG],% of time 70-180 mg/dL-mean,patients with T1D [1]; [3],66%
same,% of time <70 mg/dl-mean,patients with T1D [1]; [3],7%
same,Coefficient of Variation-median,patients with T1D [1]; [4],34%
same,"Mean Glucose, mg/dL-median",patients with T1D [1]; [4],150 mg/dL
same,"Nadir Glucose, mg/dL-median",patients with T1D [1]; [4],51 mg/dL
same,% of time 70-180 mg/dl-mean,patients with T1D [1]; [5],59%
same,% of time <70 mg/dl-mean,patients with T1D [1]; [5],4%
same,Coefficient of Variation-median,patients with T1D [1]; [6],21%
same,"Mean Glucose, mg/dl-median",patients with T1D [1]; [6],156 mg/dL
same,"Nadir Glucose, mg/dL-median",patients with T1D [1]; [6],91 mg/dL
same,Occurrence of Hypoglycemia (<70 mg/dL)-%,patients with T1D [1]; overnight (midnight to 6 am the day after exercise session),23%
same,post-intervention hyperglycemia,patients with T1D [2]; compared with ingestion of carbohydrate,less post-intervention hyperglycemia than ingestion of carbohydrate
same,reducing exercise-induced hypoglycemia,patients with T1D [2]; compared with insulin reduction,more effective than insulin reduction
same,frequency of a drop in glucose concentration,"patients with T1D [2]; given just before aerobic exercise, people with type 1 diabetes",reduces the frequency of a drop in glucose concentration

# Source: patent publication US12514907B2, “Treatment of exercise-induced hypoglycemia in type 1 and insulin using type 2 diabetes” (Xeris Pharmaceuticals, Inc., priority 2017, dated 2026)
